Data set [1] addresses T1, unphosphorylated VEGF-R2Δ50 (FLVK) (Homo sapiens, UniProt P35968, DEL940-989/E990V).
T1 construct: VEGF-R2Δ50 contains residues 806-939 and 990-1171; made in house; host or cells: baculovirus/insect cell system
Description: VEGF-R2 coupled spectrophotometric assay, unphosphorylated construct (FLVK). The note with it: for inhibition at 0.05 µM: percent inhibition at 50 nM. It is filed as biochemical. In short, it runs like this:
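Human VEGF-R2Δ50 cytosolic kinase (residues 806-939/990-1171, E990V), baculovirus-expressed, unphosphorylated form. PK/LDH-coupled NADH oxidation at 340 nm with 20 mM poly(E4Y1), 3 mM ATP, 60 mM MgCl2, 2 mM MnCl2, 200 mM HEPES pH 7.5, 5-40 nM enzyme; Ki fitted by Morrison equation.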

A short description of data set [2]: Human liver microsome (HLM) assay. The conditions noted are these: human liver microsomes, NADPH. It is filed as in vitro ADME. The method, then:
Compound metabolism in human liver microsomes was measured by LC-MS analytical assay procedures as follows. First, human liver microsomes (HLM) were thawed and diluted to 5 mg/mL with cold 100 mM potassium phosphate (KPO4) buffer. Appropriate amounts of KPO4 buffer, NADPH-regenerating solution (containing B-NADP, glucose-6-phosphate, glucose-6-phosphate dehydrogenase, and MgCl2), and HLM were preincubated in 13×100 mm glass tubes at 37° C. for 10 min. (3 tubes per test compound—triplicate). Test compound (5 μM final) was added to each tube to initiate reaction and was mixed by gentle vortexing, followed by incubation at 37° C. […] Samples were centrifuged at 4000 rpm for 20 min. to precipitate proteins and salt (Beckman Allegra 6KR, S/N ALK98DO6, #634). Supernatant was transferred to new 12×75 mm glass tubes and evaporated by Speed-Vac centrifugal vacuum evaporator. Samples were reconstituted in 200 μL 0.1% formic acid/acetonitrile (90/10) and vortexed vigorously to dissolve. The samples were then transferred to separate polypropylene microcentrifuge tubes and centrifuged at 14000×g for 10 min. (Fisher Micro 14, S/N M0017580). […]
The combined compound samples were injected into the LC-MS system, composed of a Hewlett-Packard HP1100 diode array HPLC and a Micromass Quattro II triple quadruple mass spectrometer operating in positive electrospray SIR mode (programmed to scan specifically for the molecular ion of each test compound). Each test compound peak was integrated at each timepoint. […]
On the technique in general: Microsomes from liver hold many membrane-bound enzymes, among them those of drug oxidation.

Data set [3] relates to human umbilical vein endothelial cells (HUVEC). Description: HUVEC+VEGF proliferation assay. It is filed as cell-based. The conditions noted are these: VEGF 6 ng/mL, MTT. Summed up: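 HUVEC (passage 3-4), serum-starved 24 h in F12K + 1% FBS, were pre-treated with compound for 1 h (0.1% DMSO final). They were then stimulated with VEGF at 6 ng/mL final. Proliferation was measured after 72 h by MTT dye reduction (4 h), with absorbance read at 595 nm.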

T1 sequence (P35968 with tags, fused parts or gaps DEL940-989/E990V limits assumed): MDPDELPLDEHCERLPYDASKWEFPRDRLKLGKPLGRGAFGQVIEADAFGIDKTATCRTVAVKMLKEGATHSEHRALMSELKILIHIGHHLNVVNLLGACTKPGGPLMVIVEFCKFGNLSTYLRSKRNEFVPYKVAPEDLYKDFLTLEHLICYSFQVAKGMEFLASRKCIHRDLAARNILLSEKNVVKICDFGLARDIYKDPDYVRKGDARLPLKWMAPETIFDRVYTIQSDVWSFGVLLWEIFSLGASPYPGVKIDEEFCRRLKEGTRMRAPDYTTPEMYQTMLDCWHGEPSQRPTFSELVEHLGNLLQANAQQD

Usually Ki stands for the dissociation constant of the complex between target and ligand, obtained from inhibition or displacement. A low value points to a stronger hold on the target. In general, inhibition refers to the share of the control response that was lost under treatment. A lower inhibition goes with a weak effect. In general, IC50 refers to the concentration that inhibits the measured activity by half. In the case of `COC[C@H]1CCCN1C(=O)c1cc2nccc(Nc3ccc4c(c3)cc(C)n4C(=O)NC3CC3)c2s1` [Example 1d, 5-[2-(2R-Methoxymethyl-pyrrolidine-1-carbonyl)-thieno[3,2-b]pyridin-7-ylamino]-2-methyl-indole-1-carboxylic acid cyclopropylamide], in data set [1], the affinity, expressed as Ki, was 1.1 nM and testing at 0.05 µM gave an inhibition of 97%. For the same compound, in data set [2], the “% remain (HLM-NADPH, 0.5 h)” value turned out to be 85%. The IC50 in data set [3] (72 hours) was 0.56 nM.

In data set [1], `COC[C@@H]1CCCN1C(=O)c1cc2nccc(Nc3ccc4c(c3)cc(C)n4C(=O)NC3CC3)c2s1` [Example 2c, 5-(2-[(S)-2-(methoxymethyl)pyrrolidine-1-carbonyl]thieno[3,2-b]pyridin-7-ylamino)-2-methylindole-1-carboxylic acid cyclopropylamide] came in with a Ki of 0.56 nM and an inhibition at 0.05 µM of 97%. Further, in data set [2], the “% remain (HLM-NADPH, 0.5 h)” value stood at 76.2%. In addition, the half-maximal inhibitory concentration (IC50) in data set [3] (Homo sapiens, HUVEC, 72 h) turned out to be 0.44 nM.

In data set [1], `COC[C@@H]1CCCN1C(=O)c1cc2nccc(Oc3ccc4c(c3)cc(C)n4C(=O)NC3CC3)c2s1` [Example 4b, 5-(2-[(S)-2-(methoxymethyl)pyrrolidine-1-carbonyl]thieno[3,2-b]pyridin-7-yloxy)-2-methylindole-1-carboxylic acid cyclopropylamide] gave a Ki of 0.13 nM and an inhibition at 0.05 µM of 97%. Besides, the “% remain (HLM-NADPH, 0.5 h)” value in data set [2] is 70.9%.

In data set [1], `C#CCNC(=O)n1c(C)cc2cc(Oc3ccnc4cc(C(=O)N5CCC[C@H]5COC)sc34)ccc21` [Example 4c, 5-(2-[(S)-2-(methoxymethyl)pyrrolidine-1-carbonyl]thieno[3,2-b]pyridin-7-yloxy)-2-methylindole-1-carboxylic acid prop-2-ynylamide] yielded a Ki of 0.1 nM and an inhibition at 0.05 µM of 96%. For the same compound, the “% remain (HLM-NADPH, 0.5 h)” value in data set [2] came out at 76.1%.

The values above are taken from patent US6833456B2, “Indolyl-urea derivatives of thienopyridines useful as antiangiogenic agents, and methods for their use” (Agouron Pharmaceuticals, Inc., priority 2002, dated 2004).
